# Source: patent US20050112573A1, “Method of detecting toxic substance” (priority 2001, published 2005)
# Test system: yeast genes (level of expressed mRNA)
# Test: DNA chip analysis of expressed mRNA of yeast genes after 2 h culture with a toxic chemical substance
# Format: cell-based, Saccharomyces cerevisiae S288C
# Conditions: for The level of expressed mRNA in the presence of chemical substance/ (ratio to absence of chemical substance): stress protein genes, DNA chip
# Method: Yeast (Saccharomyces cerevtisiae S288C (α SUC2mal mel gap2 CUP1)) were cultured at 25° C. on YPD medium (yeast extract 1%, polypepton 2%, glucose 2%). One of toxic chemical substances was added to the cell at logarithmic growth phase, and the cell was further cultured for two hours. Cell was cultured without any chemical substance in the same condition, and was used as control. Concentrations of the chemical substances were defined to inhibit the growth of the yeast but not lead to death.
# After the completion of cultivation, the culture was centrifuged to collect the cells. To the cells, sodium acetate buffer (50 mM sodium acetate, 10 mM EDTA, 1% SDS) was added, and the mixture was shaken at 65° C. for five minutes, followed by returning to room temperature, and obtaining the supernatant, which procedure was repeated two times. To the supernatant, ½ amount of a solution of phenol/chloroform was added, and the mixture was centrifuged to give a supernatant, which was added with an equal amount of chloroform, and the mixture was centrifuged to give a supernatant. To the supernatant, an equal amount of isopropanol containing 0.3 M sodium acetate was added, and the mixture was allowed to stand at room temperature for 30 minutes, after which the mixture was centrifuged to give a sediment of the whole RNAs. Seventy % ethanol was added to the sediment, and the mixture was again centrifuged to give a sediment, which was then dried and dissolved in water. mRNA was isolated from the whole RNAs as followings. In view of the fact that a poly A chain is attached to the 3′ terminus of mRNA, a polynucleotide having a poly T structure which was immobilized on the surface of latex beads was used to trap the mRNA, and then the mRNA was washed and eluted with spine column (Oligotex-dT30<Super>mRNA Purification Kit, Takara). Reverse transcription of the mRNA was conducted with a reverse transcriptase (Super Script II Reverse Transcriptase; catalogue No. 18064-014, GibcoBRL) using fluorescence-labeled nucleotides to give cDNAs that were introduced with Cy3-dUTP or Cy5-dUTP during the reverse transcription.
# The labeled cDNAs were dissolved in TE buffer (10 mM Tris-HCl/1 mM EDTA, pH8.0), and the solution was dropped on the DNA chip containing the whole genes of yeast (DNA Chip Research Inc. Japan) so that the cDNAs were hybridized on the DNA chip at 65° C. for over 12 hours. The fluoresces intensity of the DNA chip was read with a scanner, and the ratio relative to the fluorescence intensity resulting from the absence of chemical substance was estimated as the following, which is shown in Tables 1 to 9: [formula]
# In the Tables, “Intensity” indicated in the rightmost column is a value of the level of expressed mRNA of each gene in control cells as divided by the average level of the expressions of the whole genes.
structure (smiles),measurement,setting,value
"CCCCCCCCCCCCOS(=O)(=O)[O-].[Na+] [(18), sodium lauryl sulfate]",The level of expressed mRNA in the presence of chemical substance/absence: YOR267C,gene YOR267C,1.0
same,The level of expressed mRNA in the presence of chemical substance/absence: YOR325W,gene YOR325W,1.0
same,level of expressed mRNA in the presence of chemical substance/in its absence,gene YOR336W,1.0
same,level of expressed mRNA in the presence of chemical substance/in its absence,gene YOR344C,1.3
same,level of expressed mRNA in the presence of chemical substance/in its absence,gene YOR347C,1.3
same,The level of expressed mRNA in the presence of chemical substance/absence: YPL005W,gene YPL005W,1.1
same,level of expressed mRNA in the presence of chemical substance/in its absence,gene YPL017C,0.8
same,"The level of expressed mRNA in the presence of chemical substance / the level in the absence of chemical substance, yeast gene YPL107W","gene YPL107W, DNA chip fluorescence ratio to control without chemical, 2 hours culture with chemical, growth-inhibiting non-lethal concentration",1.1
same,"The level of expressed mRNA in the presence of chemical substance / the level in the absence of chemical substance, yeast gene YPL138C","gene YPL138C, DNA chip fluorescence ratio to control without chemical, 2 hours culture with chemical, growth-inhibiting non-lethal concentration",1.1
same,The level of expressed mRNA in the presence of chemical substance/absence: YPL150W,gene YPL150W,1.1
same,The level of expressed mRNA in the presence of chemical substance/absence: YPL151C,gene YPL151C,1.0
same,The level of expressed mRNA in the presence of chemical substance/absence: YPL152W,gene YPL152W,1.9
same,The level of expressed mRNA in the presence of chemical substance/absence: YPL168W,gene YPL168W,1.2
same,The level of expressed mRNA in the presence of chemical substance/absence: YPL180W,gene YPL180W,0.9
same,The level of expressed mRNA in the presence of chemical substance/absence: YPL188W,gene YPL188W,0.9
same,The level of expressed mRNA in the presence of chemical substance/absence: YPL221W,gene YPL221W,1.2
same,The level of expressed mRNA in the presence of chemical substance/absence: YPL225W,gene YPL225W,1.7
same,The level of expressed mRNA in the presence of chemical substance/absence: YPL249C,gene YPL249C,1.2
same,The level of expressed mRNA in the presence of chemical substance/absence: YPL260W,gene YPL260W,1.3
same,level of expressed mRNA in the presence of chemical substance/in its absence,gene YPL265W,0.4
same,level of expressed mRNA in the presence of chemical substance/in its absence,gene YPR006C,2.1
same,level of expressed mRNA in the presence of chemical substance/in its absence,gene YPR026W,1.3
same,The level of expressed mRNA in the presence of chemical substance/absence: YPR049C,gene YPR049C,1.1
same,The level of expressed mRNA in the presence of chemical substance/absence: YPR061C,gene YPR061C,0.9
same,The level of expressed mRNA in the presence of chemical substance/absence: YPR093C,gene YPR093C,1.1
same,The level of expressed mRNA in the presence of chemical substance/absence: YPR146C,gene YPR146C,1.1
same,The level of expressed mRNA in the presence of chemical substance/absence: YPR148C,gene YPR148C,2.0
same,The level of expressed mRNA in the presence of chemical substance/absence: YPR150W,gene YPR150W,1.0
same,The level of expressed mRNA in the presence of chemical substance/absence: YPR158W,gene YPR158W,0.7
same,The level of expressed mRNA in the presence of chemical substance/absence: YPR169W,gene YPR169W,1.1
same,The level of expressed mRNA in the presence of chemical substance/absence: YPR172W,gene YPR172W,1.4
same,The level of expressed mRNA in the presence of chemical substance/absence: YPR174C,gene YPR174C,0.9
same,The level of expressed mRNA in the presence of chemical substance/The level of expressed mRNA in the absence of chemical substance,yeast gene YAR010C,1.0
same,The level of expressed mRNA in the presence of chemical substance/The level of expressed mRNA in the absence of chemical substance,yeast gene YBL005W-A,1.0
same,"The level of expressed mRNA in the presence of chemical substance/ (ratio to absence), gene YBL038W","yeast gene YBL038W, mitochondria-located protein genes, 2 h culture with chemical",1.9
same,The level of expressed mRNA in the presence of chemical substance/The level of expressed mRNA in the absence of chemical substance,yeast gene YBL041W,2.0
same,The level of expressed mRNA in the presence of chemical substance/The level of expressed mRNA in the absence of chemical substance,yeast gene YBL043W,1.8
same,The level of expressed mRNA in the presence of chemical substance/The level of expressed mRNA in the absence of chemical substance,yeast gene YBL078C,2.8
same,The level of expressed mRNA in the presence of chemical substance/ (ratio to absence of chemical substance),yeast gene YBL093C,1.3
same,"The level of expressed mRNA in the presence of chemical substance/ (in its absence), gene YBR036C","yeast gene YBR036C, ratio of DNA chip fluorescence intensity to that without chemical substance",1.8
same,The level of expressed mRNA in the presence of chemical substance/ (ratio to absence of chemical substance),yeast gene YBR044C,1.3
same,"The level of expressed mRNA in the presence of chemical substance/ (ratio to absence), gene YBR122C","yeast gene YBR122C, mitochondria-located protein genes, 2 h culture with chemical",1.5
same,The level of expressed mRNA in the presence of chemical substance/The level of expressed mRNA in the absence of chemical substance,yeast gene YBR214W,1.2
same,"The level of expressed mRNA in the presence of chemical substance/ (ratio to absence), gene YBR251W","yeast gene YBR251W, mitochondria-located protein genes, 2 h culture with chemical",1.4
same,"The level of expressed mRNA in the presence of chemical substance/ (in its absence), gene YBR298C","yeast gene YBR298C, ratio of DNA chip fluorescence intensity to that without chemical substance",0.8
same,The level of expressed mRNA in the presence of chemical substance/The level of expressed mRNA in the absence of chemical substance,yeast gene YCL020W,1.3
same,The level of expressed mRNA in the presence of chemical substance/The level of expressed mRNA in the absence of chemical substance,yeast gene YCL027W,0.8
same,The level of expressed mRNA in the presence of chemical substance/The level of expressed mRNA in the absence of chemical substance,yeast gene YCR004C,3.5
same,"The level of expressed mRNA in the presence of chemical substance/ (ratio to absence), gene YCR046C","yeast gene YCR046C, mitochondria-located protein genes, 2 h culture with chemical",1.0
same,The level of expressed mRNA in the presence of chemical substance/The level of expressed mRNA in the absence of chemical substance,yeast gene YCR071C,1.3
same,"The level of expressed mRNA in the presence of chemical substance/ (ratio to absence), gene YCR083W","yeast gene YCR083W, mitochondria-located protein genes, 2 h culture with chemical",1.3
same,The level of expressed mRNA in the presence of chemical substance/ (ratio to absence of chemical substance),yeast gene YCR083W,1.3
same,The level of expressed mRNA in the presence of chemical substance/The level of expressed mRNA in the absence of chemical substance,yeast gene YCR088W,0.9
same,The level of expressed mRNA in the presence of chemical substance/The level of expressed mRNA in the absence of chemical substance,yeast gene YDL008W,1.6
same,"The level of expressed mRNA in the presence of chemical substance/ in its absence, gene YDL067C","yeast gene YDL067C, energy system protein genes, 2 h culture with the chemical, ratio to control without chemical",1.7
same,"The level of expressed mRNA in the presence of chemical substance/ (ratio to absence), gene YDL067C","yeast gene YDL067C, mitochondria-located protein genes, 2 h culture with chemical",1.7
same,"The level of expressed mRNA in the presence of chemical substance/ in its absence, gene YDL078C","yeast gene YDL078C, energy system protein genes, 2 h culture with the chemical, ratio to control without chemical",2.0
